Measurements: the supplement of paper PMC10627819

Columns and labels:
Details in all cases: main component drawn
[1] = system: B. subtilis 168; assay: fitness (endpoint OD595 vs no drug) (fraction); higher = more growth
Method in brief: (§1)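 Plates with 384 wells were inoculated at OD595 0.01 using 30 µl of TSB, LB Lennox or CY, or 55 µl for S. pneumoniae. Incubation was at 37 °C, with OD595 measured every 30 min for 14 h. Fitness is the stationary-phase transition optical density over the robust mean of no-drug control wells, after first-reading background subtraction; it is capped at 1.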

[2] = system: S. aureus Newman; assay: as above
Method in brief: as §1

[3] = system: B. subtilis 168; assay: Bliss interaction score (quartile over a dose matrix) (fitness difference); higher = more antagonism (negative = synergy)
Method in brief: (§2)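 Fitness here means normalised growth, inferred for single drugs from the combination data. Growth was OD595 at entry into stationary phase, divided by the plate's robust no-drug mean and capped at 1. The Bliss score is observed minus expected fitness, with the expectation being the product, and its quartiles span technical, biological and donor/recipient replicates.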

[4] = system: S. aureus DSM 20231; assay: as above
Method in brief: as §2

[5] = system: S. aureus Newman; assay: as above
Method in brief: as §2

[6] = system: S. pneumoniae D39V; assay: as above
Method in brief: as §2
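Wherever Bliss interaction score (quartile over a dose matrix) is given: first quartile when negative (synergy) and third quartile when positive (antagonism).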

CC[C@H](C)[C@H](N)C1=N[C@H](C(=O)N[C@@H](CC(C)C)C(=O)N[C@H](CCC(=O)O)C(=O)N[C@H](C(=O)N[C@H]2CCCCNC(=O)[C@H](CC(N)=O)NC(=O)[C@@H](CC(=O)O)NC(=O)[C@H](Cc3cnc[nH]3)NC(=O)[C@@H](Cc3ccccc3)NC(=O)[C@H]([C@@H](C)CC)NC(=O)[C@@H](CCCN)NC2=O)[C@@H](C)CC)CS1 [Bacitracin] + CN[C@@H]1[C@H](O[C@H]2[C@H](O[C@H]3[C@H](O)[C@@H](O)[C@H](N=C(N)N)[C@@H](O)[C@@H]3N=C(N)N)O[C@@H](C)[C@]2(O)C=O)O[C@@H](CO)[C@H](O)[C@H]1O [Streptomycin]
fitness
Details | first compound 18.75 µg/mL | first compound 37.5 µg/mL | first compound 75 µg/mL | first compound 150 µg/mL
[1], partner 2 µg/mL | – | 0.908 | 0.807 | –
[1], partner 8 µg/mL | – | 0.0363 | 0.0188 | 0.0134
[2], partner 1 µg/mL | – | 0.0508 | 0.0138 | –
[2], partner 2 µg/mL | – | 0.0177 | 0.0112 | –
[2], partner 4 µg/mL | 0.0347 | 0.0049 | 0.0045 | –

Details | Bliss interaction score
[3] | -0.234
[4] | -0.0869
[5] | -0.323
[6] | -0.146

CC[C@H](C)[C@H](N)C1=N[C@H](C(=O)N[C@@H](CC(C)C)C(=O)N[C@H](CCC(=O)O)C(=O)N[C@H](C(=O)N[C@H]2CCCCNC(=O)[C@H](CC(N)=O)NC(=O)[C@@H](CC(=O)O)NC(=O)[C@H](Cc3cnc[nH]3)NC(=O)[C@@H](Cc3ccccc3)NC(=O)[C@H]([C@@H](C)CC)NC(=O)[C@@H](CCCN)NC2=O)[C@@H](C)CC)CS1 [Bacitracin] + CO/N=C(\C(=O)N[C@@H]1C(=O)N2C(C(=O)O)=C(COC(C)=O)CS[C@H]12)c1csc(N)n1 [Cefotaxime]
fitness, [1], one replicate
Details | partner 0.00775 µg/mL | partner 0.0155 µg/mL | partner 0.031 µg/mL | partner 0.0625 µg/mL | partner 0.125 µg/mL | partner 0.25 µg/mL
first compound 37.5 µg/mL | 0.831 | 0.724 | 0.52 | 0.479 | 0.314 | 0.297
first compound 75 µg/mL | 0.749 | 0.521 | 0.342 | 0.257 | 0.12 | 0.111
first compound 150 µg/mL | 0.326 | 0.035 | 0 | 0.0561 | 0.0401 | 0.0433

fitness
Details | partner 0.078 µg/mL | partner 0.156 µg/mL | partner 0.312 µg/mL | partner 0.5 µg/mL | partner 0.625 µg/mL | partner 1 µg/mL | partner 1.25 µg/mL | partner 2 µg/mL | partner 2.5 µg/mL
[1], first compound 37.5 µg/mL | – | – | – | 0.274 | – | 0.137 | – | 0.134 | –
[1], first compound 75 µg/mL | – | – | – | 0.202 | – | 0.0939 | – | 0.0639 | –
[1], first compound 150 µg/mL | – | – | – | 0.0854 | – | 0.0162 | – | 0.0303 | –
[2], first compound 18.75 µg/mL | 0.465 | 0.0868 | 0.0343 | – | 0.0178 | – | 0.0266 | – | 0.0285
[2], first compound 37.5 µg/mL | 0.0257 | 0.0132 | 0.0259 | – | 0.0287 | – | 0.0203 | – | 0.0237
[2], first compound 75 µg/mL | 0.0416 | 0.031 | 0.0324 | – | 0.0342 | – | 0.0412 | – | 0.0372

Details | Bliss interaction score
[3] | -0.1
[4] | -0.0827
[5] | -0.1
[6] | -0.0668

CC[C@H](C)[C@H](N)C1=N[C@H](C(=O)N[C@@H](CC(C)C)C(=O)N[C@H](CCC(=O)O)C(=O)N[C@H](C(=O)N[C@H]2CCCCNC(=O)[C@H](CC(N)=O)NC(=O)[C@@H](CC(=O)O)NC(=O)[C@H](Cc3cnc[nH]3)NC(=O)[C@@H](Cc3ccccc3)NC(=O)[C@H]([C@@H](C)CC)NC(=O)[C@@H](CCCN)NC2=O)[C@@H](C)CC)CS1 [Bacitracin] + CO/N=C(\C(=O)N[C@@H]1C(=O)N2C(C(=O)O)=C(COC(N)=O)CS[C@H]12)c1ccco1 [Cefuroxime]
fitness, [1]
Details | first compound 37.5 µg/mL | first compound 75 µg/mL | first compound 150 µg/mL
partner 0.04875 µg/mL | 0.691 | 0.612 | –
partner 0.0975 µg/mL | 0.629 | 0.529 | 0.275
partner 0.195 µg/mL | 0.338 | 0.334 | 0.0599

fitness, one replicate
Details | partner 0.04875 µg/mL | partner 0.0975 µg/mL | partner 0.195 µg/mL | partner 0.39 µg/mL | partner 0.78 µg/mL | partner 1.562 µg/mL | partner 3.125 µg/mL | partner 6.25 µg/mL
[1], first compound 37.5 µg/mL | – | – | – | 0.293 | 0.266 | 0.419 | 0.351 | 0.269
[1], first compound 75 µg/mL | – | – | – | 0.089 | 0.0839 | 0.352 | 0.323 | 0.257
[1], first compound 150 µg/mL | – | – | – | 0.0217 | 0.0185 | 0.306 | 0.238 | 0.155
[2], first compound 18.75 µg/mL | 0.634 | 0.599 | 0.287 | – | – | – | – | –
[2], first compound 37.5 µg/mL | 0.0709 | 0.0498 | 0.025 | – | – | – | – | –
[2], first compound 75 µg/mL | 0.0097 | 0.0027 | 0.0172 | – | – | – | – | –

Details | Bliss interaction score
[3] | -0.0903
[4] | -0.188
[5] | -0.0659
[6] | 0.0554

CC[C@H](C)[C@H](N)C1=N[C@H](C(=O)N[C@@H](CC(C)C)C(=O)N[C@H](CCC(=O)O)C(=O)N[C@H](C(=O)N[C@H]2CCCCNC(=O)[C@H](CC(N)=O)NC(=O)[C@@H](CC(=O)O)NC(=O)[C@H](Cc3cnc[nH]3)NC(=O)[C@@H](Cc3ccccc3)NC(=O)[C@H]([C@@H](C)CC)NC(=O)[C@@H](CCCN)NC2=O)[C@@H](C)CC)CS1 [Bacitracin] + COc1c(N2C[C@@H]3CCCN[C@@H]3C2)c(F)cc2c(=O)c(C(=O)O)cn(C3CC3)c12 [Moxifloxacin]
fitness
Details | partner 0.0075 µg/mL | partner 0.015 µg/mL | partner 0.03 µg/mL | partner 0.0312 µg/mL | partner 0.0625 µg/mL | partner 0.125 µg/mL | partner 2 µg/mL | partner 4 µg/mL | partner 8 µg/mL
[1], first compound 37.5 µg/mL | – | – | – | 0.0427 | 0.0342 | 0.0345 | 0.0202 | 0.0156 | 0.0081
[1], first compound 75 µg/mL | – | – | – | 0.022 | 0.026 | 0.0158 | 0.0179 | 0.0161 | 0.009
[1], first compound 150 µg/mL | – | – | – | 0.019 | 0.0046 | 0.0203 | 0.0204 | 0.0121 | 0.0111
[2], first compound 18.75 µg/mL | 0.614 | 0.482 | 0.0523 | – | – | – | – | – | –
[2], first compound 37.5 µg/mL | 0.133 | 0.0255 | 0.0043 | – | – | – | – | – | –
[2], first compound 75 µg/mL | 0.0091 | 0.0053 | 0.0025 | – | – | – | – | – | –

Details | Bliss interaction score
[3] | -0.0316
[4] | 0.0317
[5] | -0.078
[6] | 0.0806
